Experimental data from PubChem BioAssay AID248 (DTP/NCI, 2004).
“And” between values parts separate entries of the source, which are not always exact repeats. Equal entries are not always repeated. Inconclusive results and toxic doses are left out. No stated cut-off is given here; in the data, active means T/C of 150% or more; inactive means T/C below 125%.

Tested on: L1210 leukemia ip in BDF1 mice, survival T/C
Assay: NCI In Vivo Anticancer Drug Screen. Data for tumor model L1210 Leukemia (intraperitoneal) in B6D2F1 (BDF1) mice
Conditions: endpoint: mean survival time, higher = longer survival
Method in brief: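 Tumor was transplanted into mice, which were then dosed with test compound or vehicle alone. Survival was recorded for each group, and the treated figure was expressed relative to the control figure.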

[1] = dose: 50.0 mg/kg/injection, schedule: Q01DX009 (ip), vehicle: Klucel (hydroxypropylcellulose) (HPC)
[2] = dose: 100.0 mg/kg/injection, schedule: Q01DX009 (ip), vehicle: Klucel (hydroxypropylcellulose) (HPC)
[3] = dose: 200.0 mg/kg/injection, schedule: Q01DX009 (ip), vehicle: Klucel (hydroxypropylcellulose) (HPC)
[4] = dose: 25.0 mg/kg/injection, schedule: Q04DX003 (ip), vehicle: Klucel (hydroxypropylcellulose) (HPC)
[5] = dose: 50.0 mg/kg/injection, schedule: Q04DX003 (ip), vehicle: Klucel (hydroxypropylcellulose) (HPC)
[6] = dose: 12.5 mg/kg/injection, schedule: Q01DX009 (ip), vehicle: saline with Tween-80
[7] = dose: 25.0 mg/kg/injection, schedule: Q01DX009 (ip), vehicle: saline with Tween-80
[8] = dose: 100.0 mg/kg/injection, schedule: Q01DX009 (ip), vehicle: saline with Tween-80

Measured: T/C

c1ccc(Nc2c3ccccc3nc3ccccc23)cc1
inactive: dose: 100.0 mg/kg/injection, schedule: Q04DX003 (ip), vehicle: other 115 % of control

CC(=O)OCC1OC(Oc2ccccc2)C(OC(C)=O)C(OC(C)=O)C(OC(C)=O)C1OC(C)=O (stereo unspecified)
inactive: [1] 104 % of control | [2] 96 % of control | [3] 96 % of control

CC(=O)[O][Pb]([c]1ccccc1)([c]1ccccc1)[c]1ccccc1
inactive: dose: 0.5 mg/kg/injection, schedule: Q01DX015 (ip), vehicle: carboxymethylcellulose (CMC) 112 % of control | dose: 1.0 mg/kg/injection, schedule: Q01DX015 (ip), vehicle: carboxymethylcellulose (CMC) 90 % of control | dose: 2.0 mg/kg/injection, schedule: Q01DX015 (ip), vehicle: carboxymethylcellulose (CMC) 87 % of control | dose: 4.0 mg/kg/injection, schedule: Q01DX015 (ip), vehicle: carboxymethylcellulose (CMC) 96 % of control

COc1cc(N(CCO)CCO)ccc1NC(=O)c1ccccc1
inactive: dose: 12.5 mg/kg/injection, schedule: Q01DX001 (ip), vehicle: carboxymethylcellulose (CMC) 93 % of control | dose: 12.5 mg/kg/injection, schedule: Q01DX009 (ip), vehicle: Klucel (hydroxypropylcellulose) (HPC) 104 % of control | dose: 12.5 mg/kg/injection, schedule: Q04DX003 (ip), vehicle: Klucel (hydroxypropylcellulose) (HPC) 97 % of control | dose: 25.0 mg/kg/injection, schedule: Q01DX001 (ip), vehicle: carboxymethylcellulose (CMC) 98 % of control | dose: 25.0 mg/kg/injection, schedule: Q01DX009 (ip), vehicle: Klucel (hydroxypropylcellulose) (HPC) 104 % of control | [4] 95 % of control | [1] 97 % of control | [5] 97 % of control

CCCCC(CC)NC(=O)c1cc(OC)c(OC)c(OC)c1 (stereo unspecified)
inactive: [4] 106 % of control | [5] 102 % of control | dose: 100.0 mg/kg/injection, schedule: Q04DX003 (ip), vehicle: Klucel (hydroxypropylcellulose) (HPC) 105 % of control | dose: 200.0 mg/kg/injection, schedule: Q04DX003 (ip), vehicle: Klucel (hydroxypropylcellulose) (HPC) 90 % of control | dose: 400.0 mg/kg/injection, schedule: Q04DX003 (ip), vehicle: Klucel (hydroxypropylcellulose) (HPC) 110 % of control

CS(=O)(=O)C(Cl)(Cl)S(C)(=O)=O
inactive: dose: 6.25 mg/kg/injection, schedule: Q01DX009 (ip), vehicle: saline with Tween-80 116 % of control | [6] 102 % of control | [7] 104 % of control

O=C(Cn1ccc(O)cc1=O)c1ccco1
inactive: [8] 108 % of control | dose: 100.0 mg/kg/injection, schedule: Q04DX003 (ip), vehicle: saline with Tween-80 96 % of control | dose: 200.0 mg/kg/injection, schedule: Q01DX009 (ip), vehicle: saline with Tween-80 104 % of control | dose: 200.0 mg/kg/injection, schedule: Q04DX003 (ip), vehicle: saline with Tween-80 94 % of control | dose: 400.0 mg/kg/injection, schedule: Q01DX009 (ip), vehicle: saline with Tween-80 101 % of control | dose: 400.0 mg/kg/injection, schedule: Q04DX003 (ip), vehicle: saline with Tween-80 97 % of control

CCOC(=O)c1cnc(SC)[nH]c1=O
inactive: dose: 50.0 mg/kg/injection, schedule: Q01DX001 (ip), vehicle: saline 92 % of control | dose: 100.0 mg/kg/injection, schedule: Q01DX001 (ip), vehicle: saline 95 % of control | dose: 200.0 mg/kg/injection, schedule: Q01DX001 (ip), vehicle: saline 98 % of control | dose: 400.0 mg/kg/injection, schedule: Q01DX001 (ip), vehicle: saline 98 % of control

O=C(Nc1ccccc1Cl)Nc1cccc2ccccc12
inactive: dose: 100.0 mg/kg/injection, schedule: Q04DX002 (ip), vehicle: Klucel (hydroxypropylcellulose) (HPC) 105 % of control | dose: 200.0 mg/kg/injection, schedule: Q04DX002 (ip), vehicle: Klucel (hydroxypropylcellulose) (HPC) 102 % of control | dose: 400.0 mg/kg/injection, schedule: Q04DX002 (ip), vehicle: Klucel (hydroxypropylcellulose) (HPC) 98 % of control

CCOc1ccc(Nc2c3ccccc3nc3ccccc23)cc1
inactive: [6] 102 % of control | dose: 20.0 mg/kg/injection, schedule: Q01DX009 (ip), vehicle: saline with Tween-80 108 % of control | [7] 123 % of control | dose: 30.0 mg/kg/injection, schedule: Q01DX009 (ip), vehicle: saline with Tween-80 110 % of control | dose: 44.0 mg/kg/injection, schedule: Q01DX009 (ip), vehicle: saline with Tween-80 105 % of control | dose: 50.0 mg/kg/injection, schedule: Q01DX009 (ip), vehicle: saline with Tween-80 123 % of control | dose: 66.0 mg/kg/injection, schedule: Q01DX009 (ip), vehicle: saline with Tween-80 111 % of control and 123 % of control | [8] 94 % of control

OCC1OC(n2cnc3c(NCCNc4ncnc5c4ncn5C4OC(CO)C(O)C4O)ncnc32)C(O)C1O (stereo unspecified)
inactive: dose: 50.0 mg/kg/injection, schedule: Q04DX002 (ip), vehicle: saline 102 % of control | dose: 100.0 mg/kg/injection, schedule: Q04DX002 (ip), vehicle: saline 110 % of control

CCCCOC(=O)c1ccc(NC(=O)Nc2cccc(F)c2)cc1
inactive: [8] 95 % of control

CC1(C)C2CCC1(C)C(N=C(N)CSS(=O)(=O)O)C2 (stereo unspecified)
inactive: dose: 12.5 mg/kg/injection, schedule: Q04DX002 (ip), vehicle: Klucel (hydroxypropylcellulose) (HPC) 112 % of control | dose: 25.0 mg/kg/injection, schedule: Q01DX001 (ip), vehicle: Klucel (hydroxypropylcellulose) (HPC) 101 % of control | dose: 25.0 mg/kg/injection, schedule: Q04DX002 (ip), vehicle: Klucel (hydroxypropylcellulose) (HPC) 98 % of control | dose: 50.0 mg/kg/injection, schedule: Q01DX001 (ip), vehicle: Klucel (hydroxypropylcellulose) (HPC) 98 % of control | dose: 100.0 mg/kg/injection, schedule: Q01DX001 (ip), vehicle: Klucel (hydroxypropylcellulose) (HPC) 87 % of control

CCOC(=O)Cc1cnc(C)[nH]c1=O
inactive: [2] 95 % of control | [3] 101 % of control | dose: 400.0 mg/kg/injection, schedule: Q01DX009 (ip), vehicle: Klucel (hydroxypropylcellulose) (HPC) 96 % of control
